Experimental data taken from US20220274954A1, “SUBSTITUTED N-PHENYL-N-AMINOUARCILS AND SALTS THEREOF AND USE THEREOF AS HERBICIDAL AGENTS” (Bayer Aktiengesellschaft, priority 2019, published 2022).

Experiments:
Assay type in all cases: in vivo
Abutilon theophrasti = assay: Post-emergence herbicidal action; details: Abutilon theophrasti, 504 h, read-out: Abutilon theophrasti (efficacy in %); for pest or weed control at 5 g/ha: application rate 5 g/ha; for pest or weed control at 20 g/ha: application rate 20 g/ha
Method: (§1) Seeds of monocotyledonous and dicotyledonous weeds and crop plants were placed in sandy loam in plastic or wood-fiber pots, covered with soil and cultivated in a greenhouse under controlled growth conditions. 2 to 3 weeks after sowing, the test plants were treated at the one-leaf stage. The compounds of the invention, formulated in the form of wettable powders (WP) or as emulsion concentrates (EC), were then sprayed onto the green parts of the plants as aqueous suspension or emulsion with addition of 0.5% additive at a water application rate of […] (converted). After the test plants had been kept in the greenhouse under optimum growth conditions for about 3 weeks, the activity of the preparations was rated visually in comparison to untreated controls. For example, 100% activity=the plants have died, 0% activity=like control plants. Tables A1 to A14 below show the effects of selected compounds of the general formula (I) according to Tables I.1 to I.34 on various harmful plants and at an application rate corresponding to 20 g/ha and less, which were obtained by the experimental procedure mentioned above.

Alopecurus myosuroides = assay: Post-emergence herbicidal action
Method: as §1

Amaranthus retroflexus = assay: Post-emergence herbicidal action; details: Amaranthus retroflexus, 504 h, read-out: Amaranthus retroflexus (efficacy in %); for pest or weed control at 5 g/ha: application rate 5 g/ha; for pest or weed control at 20 g/ha: application rate 20 g/ha
Method: as §1

Avena fatua = assay: Post-emergence herbicidal action; details: application rate 20 g/ha
Method: as §1

Digitaria sanguinalis = assay: Post-emergence herbicidal action; details: 504 h, read-out: Digitaria sanguinalis (efficacy in %); for pest or weed control at 5 g/ha: application rate 5 g/ha; for pest or weed control at 20 g/ha: application rate 20 g/ha
Method: as §1

Echinochloa crus-galli = assay: Post-emergence herbicidal action; details: Echinochloa crus-galli, 504 h, read-out: Echinochloa crus-galli (efficacy in %); for pest or weed control at 5 g/ha: application rate 5 g/ha; for pest or weed control at 20 g/ha: application rate 20 g/ha
Method: as §1

Matricaria inodora = assay: Post-emergence herbicidal action; details: Tripleurospermum inodorum, 504 h, application rate 20 g/ha, read-out: Matricaria inodora (efficacy in %)
Method: as §1

Pharbitis purpurea = assay: Post-emergence herbicidal action; details: Ipomoea purpurea, 504 h, read-out: Pharbitis purpurea (efficacy in %); for pest or weed control at 5 g/ha: application rate 5 g/ha; for pest or weed control at 20 g/ha: application rate 20 g/ha
Method: as §1

Polygonum convolvulus = assay: Post-emergence herbicidal action; details: Fallopia convolvulus, 504 h, read-out: Polygonum convolvulus (efficacy in %); for pest or weed control at 5 g/ha: application rate 5 g/ha; for pest or weed control at 20 g/ha: application rate 20 g/ha
Method: as §1

Setaria viridis = assay: Post-emergence herbicidal action; details: 504 h, read-out: Setaria viridis (efficacy in %); for pest or weed control at 5 g/ha: application rate 5 g/ha; for pest or weed control at 20 g/ha: application rate 20 g/ha
Method: as §1

Veronica persica = assay: Post-emergence herbicidal action; details: Veronica persica, 504 h, read-out: Veronica persica (efficacy in %); for pest or weed control at 5 g/ha: application rate 5 g/ha; for pest or weed control at 20 g/ha: application rate 20 g/ha
Method: as §1

Viola tricolor = assay: Post-emergence herbicidal action; details: Viola tricolor, 504 h, read-out: Viola tricolor (efficacy in %); for pest or weed control at 5 g/ha: application rate 5 g/ha; for pest or weed control at 20 g/ha: application rate 20 g/ha
Method: as §1

Oryza sativa = assay: Post-emergence crop plant compatibility
Method: as §1, with “plants.” for “plants. Tables A1 to A14 below show the effects of selected compounds of the general formula (I) according to Tables I.1 to I.34 on various harmful plants and at an application rate corresponding to 20 g/ha and less, which were obtained by the experimental procedure mentioned above.”
(§2) Here, the observed effects on selected crop plants are stated in comparison to the untreated controls (values in %).

Triticum aestivum = assay: Post-emergence crop plant compatibility
Method: as §1, with “plants.” for “plants. Tables A1 to A14 below show the effects of selected compounds of the general formula (I) according to Tables I.1 to I.34 on various harmful plants and at an application rate corresponding to 20 g/ha and less, which were obtained by the experimental procedure mentioned above.”
as §2

Zea mays = assay: Post-emergence crop plant compatibility
Method: as §1, with “plants.” for “plants. Tables A1 to A14 below show the effects of selected compounds of the general formula (I) according to Tables I.1 to I.34 on various harmful plants and at an application rate corresponding to 20 g/ha and less, which were obtained by the experimental procedure mentioned above.”
as §2

Stellaria media = assay: Post-emergence herbicidal action
Method: as §1

Glycine max = assay: Post-emergence crop plant compatibility; details: application rate 1.25 g/ha
Method: as §1, with “plants.” for “plants. Tables A1 to A14 below show the effects of selected compounds of the general formula (I) according to Tables I.1 to I.34 on various harmful plants and at an application rate corresponding to 20 g/ha and less, which were obtained by the experimental procedure mentioned above.”
as §2

Brassica napus = assay: Post-emergence crop plant compatibility; details: application rate 1.25 g/ha
Method: as §1, with “plants.” for “plants. Tables A1 to A14 below show the effects of selected compounds of the general formula (I) according to Tables I.1 to I.34 on various harmful plants and at an application rate corresponding to 20 g/ha and less, which were obtained by the experimental procedure mentioned above.”
as §2

SMILES | pest or weed control at 5 g/ha (Abutilon theophrasti) [%] | pest or weed control at 20 g/ha (Abutilon theophrasti) [%] | Alopecurus myosuroides (efficacy in %) (Alopecurus myosuroides; application rate 20 g/ha) [%] | pest or weed control at 5 g/ha (Amaranthus retroflexus) [%] | pest or weed control at 20 g/ha (Amaranthus retroflexus) [%] | pest or weed control at 5 g/ha (Digitaria sanguinalis) [%] | pest or weed control at 20 g/ha (Digitaria sanguinalis) [%] | pest or weed control at 5 g/ha (Echinochloa crus-galli) [%] | pest or weed control at 20 g/ha (Echinochloa crus-galli) [%] | pest or weed control at 20 g/ha (Matricaria inodora) [%] | pest or weed control at 5 g/ha (Pharbitis purpurea) [%] | pest or weed control at 5 g/ha (Polygonum convolvulus) [%] | pest or weed control at 20 g/ha (Polygonum convolvulus) [%] | pest or weed control at 5 g/ha (Setaria viridis) [%] | pest or weed control at 20 g/ha (Setaria viridis) [%] | pest or weed control at 5 g/ha (Veronica persica) [%] | pest or weed control at 20 g/ha (Veronica persica) [%] | pest or weed control at 5 g/ha (Viola tricolor) [%] | pest or weed control at 20 g/ha (Viola tricolor) [%] | Zea mays (efficacy in %) (Zea mays; application rate 1.25 g/ha) [%] | other results
Nn1c(C(F)(F)F)cc(=O)n(-c2cc(Sc3cccnc3OCC(=O)OCc3ccccc3)c(Cl)cc2F)c1=O [I.1-457, Benzyl {[3-({5-[3-amino-2,6-dioxo-4-(trifluoromethyl)-3,6-dihydropyrimidin-1(2H)-yl]-2-chloro-4-fluorophenyl}sulfanyl)pyridin-2-yl]oxy}acetate] | 100 | 100 | 80 | 100 | 100 | 100 | 100 | 80 | 100 | 90 | 100 | 100 | 100 | 100 | 100 | 100 | 100 | 100 | 100 | 20 | Alopecurus myosuroides (efficacy in %) (Alopecurus myosuroides; application rate 5 g/ha): 80%; Avena fatua (efficacy in %) (Avena fatua): 80%; pest or weed control at 20 g/ha (Pharbitis purpurea): 100%; Oryza sativa (efficacy in %) (Oryza sativa; application rate 1.25 g/ha): 0%; Triticum aestivum (efficacy in %) (Triticum aestivum; application rate 1.25 g/ha): 20%
CCOC(=O)C(C)Oc1ncccc1Sc1cc(-n2c(=O)cc(C(F)(F)F)n(N)c2=O)c(F)cc1Cl (centres unmarked) [I.2-442, Ethyl 2-{[3-({5-[3-amino-2,6-dioxo-4-(trifluoromethyl)-3,6-dihydropyrimidin-1(2H)-yl]-2-chloro-4-fluorophenyl}sulfanyl)pyridin-2-yl]oxy}propanoate] | 100 | 100 |  | 100 | 100 |  | 100 |  | 100 | 90 |  | 100 | 100 | 100 | 100 | 100 | 100 | 100 | 100 | 10 | Stellaria media (efficacy in %) (Stellaria media; application rate 5 g/ha): 80%; Stellaria media (efficacy in %) (Stellaria media; application rate 20 g/ha): 100%; Glycine max (efficacy in %) (Glycine max): 10%; Oryza sativa (efficacy in %) (Oryza sativa; application rate 5 g/ha): 0%; Triticum aestivum (efficacy in %) (Triticum aestivum; application rate 5 g/ha): 20%; Zea mays (efficacy in %) (Zea mays; application rate 5 g/ha): 20%
COC(=O)CCCOc1ncccc1Sc1cc(-n2c(=O)cc(C(F)(F)F)n(N)c2=O)c(F)cc1Cl [I.6-441, Methyl 4-{[3-({5-[3-amino-2,6-dioxo-4-(trifluoromethyl)-3,6-dihydropyrimidin-1(2H)-yl]-2-chloro-4-fluorophenyl}sulfanyl)pyridin-2-yl]oxy}butanoate] | 100 | 100 | 80 | 100 | 100 | 80 | 100 | 80 | 90 | 80 | 80 | 100 | 100 | 90 | 100 | 100 | 100 | 100 | 100 | 10 | pest or weed control at 20 g/ha (Pharbitis purpurea): 90%; Stellaria media (efficacy in %) (Stellaria media; application rate 5 g/ha): 100%; Stellaria media (efficacy in %) (Stellaria media; application rate 20 g/ha): 100%; Brassica napus (efficacy in %) (Brassica napus): 20%; Oryza sativa (efficacy in %) (Oryza sativa; application rate 5 g/ha): 20%; Triticum aestivum (efficacy in %) (Triticum aestivum; application rate 5 g/ha): 20%; Zea mays (efficacy in %) (Zea mays; application rate 5 g/ha): 20%
